From patent US20260364047A1, “METHODS OF SWITCHING NEUROPSYCHIATRIC MEDICATIONS USING ULOTARONT” (Sumitomo Pharma America, Inc., priority 2022, published 2026) come the findings set out here.

Experiment [1] can be described thus: Daily food intake of rats previously treated with olanzapine. The conditions noted are these: 3 mg/kg/day po.
Experiment [2] is described as follows: Changes in body weights of rats previously treated with olanzapine.
A short description of experiment [3]: Liver triglycerides of rats previously treated with olanzapine. The conditions noted are these: 3 mg/kg po; prior olanzapine 3 mg/kg po.
Where [4] appears, read: Week 1 (Day 1-8), 3 mg/kg po, high-fat diet.
Setting [5] is: Week 2 (Day 8-14), 3 mg/kg po, prior olanzapine 3 mg/kg po.

Entries after “also recorded” stand apart in the source; their conditions may differ.

Consider `Cc1cc2c(s1)Nc1ccccc1N=C2N1CCN(C)CC1` [Olanzapine, olanzapine], for which, in experiment [1], the “Food intake compared to vehicle treated rats (in words)” value was “significantly increased”. Besides, the “Increase in body weight, previously shown in-house” value in experiment [2] (3 mg/kg po, this model, earlier in-house experiments) is 4-6%. For the same molecule, the “Body weight compared to vehicle treated rats (in words)” value in experiment [2] (3 mg/kg/day po) was “An increase in body weight; also recorded: significantly increased body weight”. Also, the “Time to initial effects on body weight and food intake” value in experiment [2] (3 mg/kg/day po, as early as, following dosing) lay in the range of 2 to 3 days. Moreover, in experiment [2] (setting [4]), the “Changes in body weights, Difference vs Vehicle (A)” value is reported as 13.07 g and the “Changes in body weights, Mean” value worked out at 25.48 g. Besides, in experiment [2] (setting [5]), the “Changes in body weights, Difference vs Vehicle (A)” value came out at 7.55 g and the “Changes in body weights, Mean” value amounted to 16.70 g. For the same molecule, in experiment [3], the “Liver triglycerides (μmol total), % vs Vehicle (A)” value came to 100.4%; the “Liver triglycerides (μmol/g), % vs Vehicle (A)” value turned out to be 100.0%; the “Liver triglycerides total, Mean” value worked out at 348 μmol total; the “Liver triglycerides, Mean” value stood at 37.1 µmol/g.
